Experiments:
[1] = tested on: isolated rat heart infarction model; experiment: Isolated rat heart infarction study after daily p.o. treatment; type: in vivo, Wistar rats; settings: for Infarct size, % of control: isolated rat heart, 60 min occlusion, 150 min reperfusion, mean ± s.e.m. of 9-10 animals; for decrease of infarct size: versus control
Description: Fifty male, 10 weeks old Wistar rats weighing 200-250 g were housed under standard conditions (21-23° C., 12 h light-dark cycle) with unlimited access to food (R3 diet, Lactamin AB, Sweden) and water.
Rats were adapted to local conditions for two weeks before the start of treatment. Meldonium dihydrate at a dose of 5 mg/kg or 100 mg/kg, gamma-butyrobetaine at a dose of 5 mg/kg and EG at doses of 20 mg/kg were administered p.o. daily for 8 weeks. Control rats received water.
Isolated Rat Heart Infarction Study The isolated rat heart experiment was performed essentially as described earlier (Liepinsh et al., J. Cardiovasc. Pharmacol. 2006; 48(6):314-9). Twenty-four hours after the last drug administration hearts were excised and retrogradely perfused via the aorta at a constant pressure with oxygenated Krebs-Henseleit buffer at 37° C. The heart rate, left ventricle end-diastolic pressure and left ventricle developed pressure were continuously recorded. Coronary flow was measured using an ultrasound flow detector (HSE) and the PowerLab 8/30 system from ADInstruments. The hearts were perfused for 20 min to stabilize the hemodynamic functions and then occlusion was performed for 60 min by constricting threads through a plastic tube. Successful occlusion was confirmed by a coronary flow decrease of about 40 percent. Reperfusion was achieved by releasing the threads. At the end of the 150-min reperfusion period, the risk zone was delineated with 0.1% methylene blue. The hearts were then sectioned transversely from the apex to the base in five slices 2 mm in thickness and incubated in 1% triphenyltetrazolium chloride in phosphate buffer (pH 7.4, 37° C.) for 10 min to stain viable tissue red and necrotic tissue white. Computerized planemetric analysis of Sony A900 photographs was performed using Image-Pro Plus 6.3 software to determine the area at risk and area of necrosis expressed as a % of the left ventricle. The obtained values were then used to calculate the infarct size (IS) as a % of risk area according to the formula: Infarct Size=Area of Necrosis/Area at Risk×100%.
The anti-infarction effect of examined substances was investigated in an isolated rat heart infarction model. During occlusion of left coronary artery, the coronary flow in all experimental groups was decreased for 40% (from 11 ml/min 30 to 7 ml/min). Moreover, the drop of developed left ventricular pressure for 50% was observed. […] In reperfusion stage, coronary flow, developed left ventricular pressure, ±dp/dt values were recovered till about 80% of control level. There were no significant differences between control and treatment groups.
Effects of Meldonium dihydrate (5 mg/kg un 100 mg/kg), gamma-butyrobetaine (5 mg/kg) and 4-[ethyl(dimethyl)ammonio]butanoate (EG) (5 mg/kg) after […] of treatment on infarct size in the isolated rat heart infarction experiment are presented in Table 1.

[2] = s.c.; cited from earlier work

SMILES: CC[N+](C)(C)CCCC(=O)[O-] [EG, 4-[ethyl(dimethyl)ammonio]butanoate]
- Infarct size, % of control ([1]; 5 mg/kg p.o. daily): 59 ± 6 % of control
- decrease of infarct size ([1]; dose of 5 mg/kg): 41%

SMILES: C[N+](C)(C)CCCC(=O)[O-] [Gamma-butyrobetaine]
- LD50 [2]: > 7000 mg/kg
- Infarct size, % of control ([1]; 5 mg/kg p.o. daily): 90 ± 5 % of control
- therapeutical effect on infarct size ([1]; dose of 5 mg/kg): no therapeutical effect

SMILES: C[N+](C)(C)NCCC(=O)[O-] [Meldonium dihydrate, 3-(2,2,2-Trimethylhydrazinium)propionate dihydrate]
- Infarct size, % of control ([1]; 5 mg/kg p.o. daily): 95 ± 9 % of control
- Infarct size, % of control ([1]; 100 mg/kg p.o. daily): 76 ± 10 % of control
- decrease of infarct size ([1]; 100 mg/kg): 24%
- decrease of infarct size ([1]; dose of 5 mg/kg): 5%
